Patent US20240336657A1, “G-ALPHA-S PEPTIDE INHIBITORS AND USES THEREOF” (The Regents of the University of California, priority 2021, published 2024)
Positions of bridges follow the written chain, without caps; N, C: chain ends. Non-standard residues stand in square brackets, D forms with d. Residues, ends and D or L forms follow the SMILES beside them.

Legend:
[1] = test system: biotinylated Gαs WT and His-tagged Gβγ(C68S); assay: FRET based Gα/Gβγ interaction assay; format: binding, human; details: Gαs/Gβγ versus Gαi/Gβγ
Description: When we compared our GD20-bound Gαs structure with another GDP-bound Gαs structure in complex with Gβγ (FIG. 20D) (Liu et al., 2019), we noticed that GD20 induces a significant conformational shift of the Gβγ binding surface, and GD20 occupies the Gβγ binding surface in a competitive manner (FIGS. 20E-20F). […] Finally, 2× stocks of cyclic peptides were added with the protein mixtures. After incubation at room temperature for 2 hour at room temperature. The plate was read on a TECAN Spark 20 M plate reader using the TR-FRET mode with the following parameters: Lag time: […], Integration time: […], Read A: Ex 320(25) nm (filter), Em 610(20) nm (filter), Gain 130, Read B: Ex 320(25) nm (filter), Em 665(8) nm (filter), Gain 165. FRET Signal was calculated as the ratio of [Read B]/[Read A].

[2] = test system: HeLa cells stably expressing HaloTag; assay: Chloroalkane penetration assay (CAPA); format: in vitro ADME, human; details: chloroalkane-tagged (ct) peptide; HeLa cells; ct-TAMRA chase
Source text: We first tested the cell permeability of GD20, as peptide-based chemical probes often suffer from poor cell permeability. […] In order to quantitatively evaluate the cell permeability of GD20, we used a recently developed HaloTag-based assay known as a chloroalkane penetration assay (CAPA) (Figure S6I) (Peraro et al., 2018). HeLa cells stably expressing HaloTag localized to the mitochondrial outer membrane were pulsed with chloroalkane-tagged molecules (ct-molecule), washed, chased with chloroalkane-tagged TAMRA fluorophore (ct-TAMRA), and finally analyzed by flow cytometry. A lower ct-TAMRA fluorescent signal indicates competition from a higher cytosolic concentration of ct-molecule. The carboxyl terminus of GD20 (G15) was conjugated with a chloroalkane tag to make ct-GD20 (FIG. 23A).
The cell lines used for CAPA were HeLa cell lines, generated by Chenoweth and co-workers, that stably express HaloTag exclusively in the cytosol (Peraro et al., 2018). Cells were seeded in a 96-well plate the day before the experiment at a density of 4×10^4 cells per well. The day of the experiment the media was aspirated, and 100 μL of cyclic peptide dilutions in DMEM were added to the cells. Plate was incubated for 19.5 h at 37° C. with 5% CO2. […] The cells were then trypsinized, quenched with DMEM, resuspended in PBS, and analyzed using a benchtop flow cytometer (CytoFLEX, Beckman).

Gαs = Gαs (Homo sapiens, UniProt P63092); assay: Adenylyl cyclase activity assay in HEK293 cell membranes, β2AR stimulated by isoproterenol; format: biochemical; design: endogenous in cells; host or cells: HEK293 cell membranes; details: GTP/GDP 500/50 μM, 2 hours preincubation, 40 μM isoproterenol, read-out: IC50, inhibition of ISO-stimulated Gαs activity (cAMP)
Description: We sought to test the efficacy of GN13 in B2-adrenergic receptor (β2AR) mediated second messenger stimulation in cell membranes. Membrane anchored GDP-bound Gαs is inhibited by Gβγ in the resting state. It can undergo GPCR mediated GDP to GTP exchange upon agonist stimulation (Weis and Kobilka, 2018). The presence of GN13 could potentially capture the newly generated GTP-bound Gαs and inhibit its activation (FIG. 17E). To test this idea, we incubated cell membranes prepared from HEK293 cells with GN13 and examined cAMP accumulation with or without stimulation of β2-adrenergic receptor (β2AR) by isoproterenol (ISO).
GN13 inhibition of Gαs proteins in HEK293 cell membranes (FIG. 17F and FIG. 18F).
a. Cell membrane preparation: HEK293cells, GNAS KO HEK293 cells were plated two day before transfection at a density of 1M cells per 10 cm plate. […] The protein concentrations were measured using BCA, and were normalized to 750 μg/mL. […] The cAMP concentrations were measured by the LANCE Ultra cAMP kit. […]
A cAMP standard curve was generated in the same plate using the 50 μM cAMP standard in the kit. […] 10 μL of each diluted sample was mixed with 5 μL of 4× Eu-cAMP tracer and 5 μL of 4× ULight-anti-cAMP in a white, opaque Optiplate-384 microplate, incubated for 1 hour at room temperature, and the time-resolved fluorescence resonance energy transfer (TR-FRET) signals were read on a Spark 20M plate reader. […]

Sequence of Gαs (P63092 whole entry): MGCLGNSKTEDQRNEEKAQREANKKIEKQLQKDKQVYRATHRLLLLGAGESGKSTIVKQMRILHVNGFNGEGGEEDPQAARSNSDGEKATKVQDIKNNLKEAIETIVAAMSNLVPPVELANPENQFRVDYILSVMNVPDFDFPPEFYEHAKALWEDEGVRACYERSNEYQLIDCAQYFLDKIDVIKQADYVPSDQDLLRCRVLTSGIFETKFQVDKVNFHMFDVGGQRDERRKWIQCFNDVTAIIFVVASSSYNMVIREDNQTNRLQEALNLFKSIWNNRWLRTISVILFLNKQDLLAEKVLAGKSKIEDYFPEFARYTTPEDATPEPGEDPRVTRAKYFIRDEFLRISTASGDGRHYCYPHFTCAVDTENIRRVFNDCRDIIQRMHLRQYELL

Row | IC50 (Gαs) | Structure (SMILES) | selectivity for Gαs than Gαi in the FRET assay [1] | cell permeability (CAPA) [2]
1 |  | CC[C@H](C)[C@@H]1NC(=O)[C@H](CC(C)C)NC(=O)[C@@H](Cc2ccc(O)cc2)NC(=O)CSC[C@@H](C(=O)NCC(N)=O)NC(=O)[C@@H]2CCCN2C(=O)[C@H](CC(C)C)NC(=O)[C@H](CC(N)=O)NC(=O)[C@H](CC(C)C)NC(=O)[C@H](C)NC(=O)[C@H](Cc2c[nH]c3ccccc23)NC(=O)[C@H](CCC(N)=O)NC(=O)[C@H](CCCNC(=N)N)NC(=O)[C@H](Cc2ccccc2)NC(=O)[C@H]([C@@H](C)O)NC1=O [GD20-F10L] ({CH2CO}-[dY]LITFRQWALNLPCG-NH2; thioether N-14) | 100 fold | significantly improved cell penetration
2 | 12.2 ± 2.51 µM | CC[C@H](C)[C@@H]1NC(=O)[C@H](C)NC(=O)[C@H](Cc2ccc(O)cc2)NC(=O)[C@H](C(C)C)NC(=O)[C@H](CO)NC(=O)[C@H](CCC(=O)O)NC(=O)[C@H](Cc2ccccc2)NC(=O)[C@@H](Cc2ccc(O)cc2)NC(=O)CSC[C@@H](C(=O)NCC(N)=O)NC(=O)[C@H](CC(C)C)NC(=O)[C@H]([C@@H](C)O)NC(=O)CNC(=O)[C@H](Cc2c[nH]c3ccccc23)NC1=O [GN13] ({CH2CO}-[dY]FESVYAIWGTLCG-NH2; thioether N-13) |  | 
